Measurements: patent US10513524B2, “PDE9 inhibitors with imidazo triazinone backbone and imidazo pyrazinone backbone for treatment of peripheral diseases” (H. LUNDBECK A/S, priority 2015, dated 2019)

Tests used:
PDE1 = PDE1 inhibition assay; format: biochemical; details: 15 nM tritium labelled cAMP, SPA beads, 1 h at room temperature
Method: Reactions were initiated by addition of the cyclic nucleotide substrate, and reactions were allowed to proceed for 1 h at room temperature before being terminated through mixing with 20 μL (0.2 mg) yttrium silicate SPA beads (PerkinElmer).

[1] = Blood Brain Barrier penetration (brain-to-plasma distribution); format: in vivo; details: male CD mice, subcutaneous 10 mg/kg; for Kp at 0.5 h / Kp at 2 h: mouse, brain/plasma, sc; for Brain concentration after 30 minutes / Plasma concentration after 30 minutes / Kp at 0.5 h: 30 min; for Kp at 0.5 h: read-out: Brain/Plasma ratio after 30 minutes; for Brain concentration after 120 minutes / Plasma concentration after 120 minutes / Kp at 2 h: 120 min; for Kp at 2 h: read-out: Brain/Plasma ratio after 120 minutes
Method: Male CD mice (20-24 g) were housed pair-wise with free access to food and water for an acclimatization period of 3-7 days before initiation of experiments. Prior to dosing the animals were fasted overnight. During testing, mice were kept in individual cages. The brain-to-plasma distribution was assessed 30 minutes and 2 hours after subcutaneous administration of the test compound at a dose of 10 mg/kg (n=3 at each time point). The dose volume was 10 ml/kg using appropriate vehicle to solubilize each test compound. At the time of sampling, animals were anesthetized with isoflurane and a systemic blood sample collected by cardiac puncture into vacutainers containing sodium heparin as anti-coagulant. The blood was centrifuged at 3500 rpm for 10 minutes at 4° C. to obtain plasma. Following decapitation, brains were dissected out and transferred to pre-weighed vessels followed by tissue weights determination. Plasma and brains were stored at −80° C. until quantitative bioanalysis by LC-MS/MS. Results are expressed as ng/ml for plasma and ng/g for brain samples.

| SMILES | IC50 (PDE1) [µM] | Brain concentration after 30 minutes [1] | Plasma concentration after 30 minutes [1] | Brain concentration after 120 minutes [1] | Plasma concentration after 120 minutes [1] | Kp at 0.5 h [1] | Kp at 2 h [1] |
| --- | --- | --- | --- | --- | --- | --- | --- |
| O=c1[nH]c(CN2CC(Oc3ccncc3)C2)cn2c(-c3ccc(F)cc3)ncc12 [Compound (P1), 3-(4-fluorophenyl)-6-((3-(pyridin-4-yloxy)azetidin-1-yl)methyl)imidazo[1,5-a]pyrazin-8(7H)-one] | 45.1 | 30 min.: 42 ng/mL | 30 min.: 719 ng/mL | 120 min.: 7 ng/mL | 120 min.: 86 ng/mL | 0.06 | 0.08 |
| O=c1[nH]c(CN2CC(Oc3cccnc3)C2)cn2c(C3CCOCC3)ncc12 [Compound (P2), 6-[3-(pyridin-3-yloxy)-azetidin-1-ylmethyl]-3-(tetrahydropyran-4-yl)-7H-imidazo[1,5-a]pyrazin-8-one] | 5.28 | Below detection | 30 min.: 715 ng/mL | Below detection | 120 min.: 11 ng/mL | – | – |
| O=c1[nH]c(CN2CC(OCc3ccc(F)cc3)C2)nn2c(C3CCOCC3)ncc12 [Compound (P4)] | – | 30 min.: 125 ng/mL | 30 min.: 3380 ng/mL | 120 min.: 15 ng/mL | 120 min. 352 ng/mL | – | – |

The remaining compounds from weak to strong by IC50 (PDE1), led by results:

| IC50 (PDE1) [µM] | Brain concentration after 30 minutes [1] | Plasma concentration after 30 minutes [1] | Brain concentration after 120 minutes [1] | Plasma concentration after 120 minutes [1] | Kp at 0.5 h [1] | Kp at 2 h [1] | SMILES |
| --- | --- | --- | --- | --- | --- | --- | --- |
| 3 | 30 min.: 67 ng/mL | 30 min.: 1620 ng/mL | 120 min.: 7 ng/mL | 120 min.: 226 ng/mL | 0.04 | 0.03 | C[C@@H]1CN(Cc2ncccn2)C[C@H]1c1cn2c(C3CCOCC3)ncc2c(=O)[nH]1 (single isomer, unassigned) [Compound (P3, enantiomer 1)] |
| 2.5 | – | – | – | – | – | – | C[C@@H]1CN(Cc2ncccn2)C[C@H]1c1nc2c(cnn2C2CCOCC2)c(=O)[nH]1 (single isomer, unassigned) [Reference compound, reference compound] |
